Experimental data: patent US11155517B2, “4-substituted phenylamine derivatives and their use to protect crops by fighting undesired phytopathogenic micoorganisms” (PI INDUSTRIES LTD., priority 2016, dated 2021)

Key:
Format in all cases: cell-based
[1] = test system: Pyricularia oryzae; assay: microbe, parasite or virus in culture; settings: 168 h, read-out: % control compared to the untreated check (radial growth)
[2] = test system: Rhizoctonia solani; assay: Rhizoctonia solani (rice sheath blight/potato black scurf) in vitro test, radial growth on Potato Dextrose Agar; settings: 168 h, 300 ppm, seven days, 25° C., read-out: % control compared to the untreated check (radial growth)
[3] = test system: Colletotrichum capsici; assay: Colletotrichum capsici (anthracnose) in vitro test, radial growth on Potato Dextrose Agar; settings: Colletotrichum truncatum, 168 h; 300 ppm; seven days, 25° C.; read-out: % control compared to the untreated check (radial growth)
[4] = test system: Alternaria solani; assay: Alternaria solani (early blight of tomato/potato) in vitro test, radial growth on Potato Dextrose Agar; settings: 168 h, 300 ppm, seven days, 25° C., read-out: % control compared to the untreated check (radial growth)
[5] = test system: Septoria lycopersici; assay: Septoria lycopersici (leaf spot of tomato) in vitro test, radial growth on Potato Dextrose Agar; settings: 168 h, seven days, 25° C., read-out: % control compared to the untreated check (radial growth)
[6] = test system: Botrytis cinerea; assay: Botrytis cinerea (gray mold) in vitro test, radial growth on Potato Dextrose Agar; settings: 168 h, 300 ppm, seven days, 22° C., read-out: % (control) compared to the untreated check (radial growth)

In the case of CCN(C)C=Nc1cc(C)c(Cc2ccccc2C#N)cc1Cl [Compound 100, N′-(2-chloro-4-(2-cyanobenzyl)-5-methylphenyl)-N-ethyl-N-methylformimidamide], the inhibition of growth at 300 ppm [1] is reported as > 75%, the inhibition of growth at 300 ppm [2] is reported as > 80% and the inhibition of growth at 300 ppm [3] is reported as > 80%. The inhibition of growth at 300 ppm [4] was > 75%.
In the case of CCN(C)C=Nc1cc(C(F)(F)F)c(Cc2cccc(Cl)c2)cc1F [Compound 229, N′-(4-(3-chlorobenzyl)-2-fluoro-5-(trifluoromethyl)phenyl)-N-ethyl-N-methylformimidamide], the inhibition of growth at 300 ppm [1] is reported as > 75%, the inhibition of growth at 300 ppm [5] is reported as > 70% and the inhibition of growth at 300 ppm [2] is reported as > 80%. The inhibition of growth at 300 ppm [4] was > 75%.
In the case of CCN(C)C=Nc1cc(C)c(Cc2c(F)cccc2F)cc1Cl [Compound 203, N′-(2-chloro-4-(2,6-difluorobenzyl)-5-methylphenyl)-N-ethyl-N-methylformimidamide], the inhibition of growth at 300 ppm [1] is reported as > 75%, the inhibition of growth at 300 ppm [3] is reported as > 80% and the inhibition of growth at 300 ppm [4] is reported as > 75%.
CCN(C)C=Nc1cc(C)c(Cc2ccc(Cl)c(F)c2)cc1Cl [Compound 95, N′-(2-chloro-4-(4-chloro-3-fluorobenzyl)-5-methylphenyl)-N-ethyl-N-methylformimidamide] was tested, and the inhibition of growth at 300 ppm [1] was > 75%, the inhibition of growth at 300 ppm [6] was > 80% and the inhibition of growth at 300 ppm [2] was > 80%. The inhibition of growth at 300 ppm [3] was > 80% and the inhibition of growth at 300 ppm [4] was > 75%.
Cc1cc(N=CN2CCSCC2)c(C)cc1Cc1ccccc1F [Compound 85, N-(4-(2-fluorobenzyl)-2,5-dimethylphenyl)-1-thiomorpholinomethanimine] was tested, and the inhibition of growth at 300 ppm [1] was > 75%, the inhibition of growth at 300 ppm [6] was > 80% and the inhibition of growth at 300 ppm [2] was > 80%. For the same molecule, the inhibition of growth at 300 ppm [3] was > 80% and the inhibition of growth at 300 ppm [4] was > 75%.
For CCN(C)C=Nc1cc(C)c(Cc2cccnc2)cc1Cl [Compound 204, N′-(2-chloro-5-methyl-4-(pyridin-3-ylmethyl)phenyl)-N-ethyl-N-methylformimidamide], the inhibition of growth at 300 ppm [1] was > 75%, the inhibition of growth at 300 ppm [6] was > 80% and the inhibition of growth at 300 ppm [2] was > 80%. The inhibition of growth at 300 ppm [3] was > 80% and the inhibition of growth at 300 ppm [4] was > 75%.
CCN(C)C=Nc1cc(Cl)c(Cc2cccc(C)c2)cc1Cl [Compound 141, N′-(2,5-dichloro-4-(3-methylbenzyl)phenyl)-N-ethyl-N-methylformimidamide] was tested, and the inhibition of growth at 300 ppm [1] was > 75%, the inhibition of growth at 300 ppm [6] was > 80% and the inhibition of growth at 300 ppm [2] was > 80%. The inhibition of growth at 300 ppm [4] was > 75%.
With CCN(C)C=Nc1cc(C)c(Cc2cc(C)cc(F)c2)cc1Cl [Compound 140, N′-(2-chloro-4-(3-fluoro-5-methylbenzyl)-5-methylphenyl)-N-ethyl-N-methylformimidamide] the inhibition of growth at 300 ppm [1] was > 75%, the inhibition of growth at 300 ppm [6] was > 80% and the inhibition of growth at 300 ppm [2] was > 80%. The inhibition of growth at 300 ppm [3] was > 80% and the inhibition of growth at 300 ppm [4] was > 75%.
In the case of Cc1cc(N(C#N)C=N)c(C)cc1Cc1ccccc1F [Compound 64, N-cyano-N-(4-(2-fluorobenzyl)-2,5-dimethylphenyl)formimidamide], the inhibition of growth at 300 ppm [1] is reported as > 75% and the inhibition of growth at 300 ppm [5] is reported as > 70%.
For CCN(C)C=Nc1cc(Cl)c(Cc2ccccc2C)cc1Cl [Compound 151, N′-(2,5-dichloro-4-(2-methylbenzyl)phenyl)-N-ethyl-N-methylformimidamide], the inhibition of growth at 300 ppm [1] was > 75%, the inhibition of growth at 300 ppm [6] was > 80% and the inhibition of growth at 300 ppm [2] was > 80%. The inhibition of growth at 300 ppm [4] was > 75%.
In the case of CCN(C)C=Nc1cc(C)c(Cc2cccc(C(C)C#N)c2)cc1C (centres unmarked) [Compound 107, N′-(4-(3-(1-cyanoethyl)benzyl)-2,5-dimethylphenyl)-N-ethyl-N-methylformimidamide], the inhibition of growth at 300 ppm [1] is reported as > 75%, the inhibition of growth at 300 ppm [6] is reported as > 80% and the inhibition of growth at 300 ppm [2] is reported as > 80%. For the same molecule, the inhibition of growth at 300 ppm [3] was > 80% and the inhibition of growth at 300 ppm [4] was > 75%.
With Cc1cc(N=CN(CC2CC2)C(C)C)c(C)cc1Cc1ccccc1Cl [Compound 89, N′-(4-(2-chlorobenzyl)-2,5-dimethylphenyl)-N-(cyclopropylmethyl)-N-isopropylformimidamide] the inhibition of growth at 300 ppm [1] was > 75%, the inhibition of growth at 300 ppm [6] was > 80% and the inhibition of growth at 300 ppm [2] was > 80%. For the same molecule, the inhibition of growth at 300 ppm [4] was > 75%.
For CCN(C)C=Nc1cc(C)c(Cc2cccc(C)c2)cc1S(C)(=O)=O [Compound 273, N-ethyl-N-methyl-N′-(5-methyl-4-(3-methylbenzyl)-2-(methylsulfonyl)phenyl)formimidamide], the inhibition of growth at 300 ppm [1] was > 75%, the inhibition of growth at 300 ppm [6] was > 80% and the inhibition of growth at 300 ppm [2] was > 80%. For the same molecule, the inhibition of growth at 300 ppm [4] was > 75%.
In the case of CCN(C)C=Nc1cc(C)c(C(C#N)c2ccccc2)cc1C (centres unmarked) [Compound 127, N′-(4-(cyano(phenyl)methyl)-2,5-dimethylphenyl)-N-ethyl-N-methylformimidamide], the inhibition of growth at 300 ppm [1] is reported as > 75%, the inhibition of growth at 300 ppm [2] is reported as > 80% and the inhibition of growth at 300 ppm [3] is reported as > 80%. For the same molecule, the inhibition of growth at 300 ppm [4] was > 75%.
For CCN(C)C=Nc1cc(C)c(Cc2cccc(F)c2)cc1S(C)(=O)=O [Compound 216, N-ethyl-N′-(4-(3-fluorobenzyl)-5-methyl-2-(methylsulfonyl)phenyl)-N-methylformimidamide], the inhibition of growth at 300 ppm [1] was > 75%, the inhibition of growth at 300 ppm [5] was > 70% and the inhibition of growth at 300 ppm [2] was > 80%. The inhibition of growth at 300 ppm [4] was > 75%.
With CCN(C)C=Nc1cc(C)c(Cc2cccc(Cl)c2F)cc1Cl [Compound 123, N′-(2-chloro-4-(3-chloro-2-fluorobenzyl)-5-methylphenyl)-N-ethyl-N-methylformimidamide] the inhibition of growth at 300 ppm [1] was > 75%, the inhibition of growth at 300 ppm [6] was > 80% and the inhibition of growth at 300 ppm [2] was > 80%. For the same molecule, the inhibition of growth at 300 ppm [3] was > 80% and the inhibition of growth at 300 ppm [4] was > 75%.
For CCN(C)C=Nc1cc(C(F)(F)F)c(Cc2cccc(C(F)(F)F)c2)cc1F [Compound 232, N-ethyl-N′-(2-fluoro-5-(trifluoromethyl)-4-(3-(trifluoromethyl)benzyl)phenyl)-N-methylformimidamide], the inhibition of growth at 300 ppm [1] was > 75%, the inhibition of growth at 300 ppm [6] was > 80% and the inhibition of growth at 300 ppm [2] was > 80%. The inhibition of growth at 300 ppm [4] was > 75%.
With CCN(C)C=Nc1cc(C(F)(F)F)c(Cc2ccccc2C)cc1F [Compound 228, N-ethyl-N′-(2-fluoro-4-(2-methylbenzyl)-5-(trifluoromethyl)phenyl)-N-methylformimidamide] the inhibition of growth at 300 ppm [1] was > 75%, the inhibition of growth at 300 ppm [5] was > 70% and the inhibition of growth at 300 ppm [2] was > 80%. The inhibition of growth at 300 ppm [4] was > 75%.
CCN(C)C=Nc1cc(C)c(Cc2ccccc2C)cc1Cl [Compound 122, N′-(2-chloro-5-methyl-4-(2-methylbenzyl)phenyl)-N-ethyl-N-methylformimidamide] was tested, and the inhibition of growth at 300 ppm [1] was > 75%, the inhibition of growth at 300 ppm [2] was > 80% and the inhibition of growth at 300 ppm [3] was > 80%. The inhibition of growth at 300 ppm [4] was > 75%.
With Cc1cc(N=CN2CCCCC2)c(Cl)cc1Cc1cccc(F)c1 [Compound 39, N-(2-chloro-4-(3-fluorobenzyl)-5-methylphenyl)-1-(piperidin-1-yl)methanimine] the inhibition of growth at 300 ppm [1] was > 75%, the inhibition of growth at 300 ppm [2] was > 80% and the inhibition of growth at 300 ppm [3] was > 80%. The inhibition of growth at 300 ppm [4] was > 75%.
For CCN(C)C=Nc1cc(Cl)c(Cc2cccc(Cl)c2)cc1Cl [Compound 152, N′-(2,5-dichloro-4-(3-chlorobenzyl)phenyl)-N-ethyl-N-methylformimidamide], the inhibition of growth at 300 ppm [1] was > 75%, the inhibition of growth at 300 ppm [6] was > 80% and the inhibition of growth at 300 ppm [2] was > 80%. For the same molecule, the inhibition of growth at 300 ppm [4] was > 75%.
With CCN(C)C=Nc1cc(C)c(Cc2cc(Cl)cc(Cl)c2)cc1Cl [Compound 21, N′-(2-chloro-4-(3,5-dichlorobenzyl)-5-methylphenyl)-N-ethyl-N-methylformimidamide] the inhibition of growth at 300 ppm [1] was > 75%, the inhibition of growth at 300 ppm [6] was > 80% and the inhibition of growth at 300 ppm [2] was > 80%. For the same molecule, the inhibition of growth at 300 ppm [3] was > 80% and the inhibition of growth at 300 ppm [4] was > 75%.
CCN(C)C=Nc1cc(C#N)c(Cc2cccc(C)c2)cc1C [Compound 251, N′-(5-cyano-2-methyl-4-(3-methylbenzyl)phenyl)-N-ethyl-N-methylformimidamide] was tested, and the inhibition of growth at 300 ppm [1] was > 75%, the inhibition of growth at 300 ppm [6] was > 80% and the inhibition of growth at 300 ppm [2] was > 80%. The inhibition of growth at 300 ppm [4] was > 75%.
CCN(C)C=Nc1cc(C(F)(F)F)c(Cc2cccc(F)c2)cc1F [Compound 230, N-ethyl-N′-(2-fluoro-4-(3-fluorobenzyl)-5-(trifluoromethyl)phenyl)-N-methylformimidamide] was tested, and the inhibition of growth at 300 ppm [1] was > 75%, the inhibition of growth at 300 ppm [6] was > 80% and the inhibition of growth at 300 ppm [2] was > 80%. The inhibition of growth at 300 ppm [4] was > 75%.
With CCN(C)C=Nc1cc(C)c(Cc2cccc(OC(F)(F)F)c2)cc1Cl [Compound 124, N′-(2-chloro-5-methyl-4-(3-(trifluoromethoxy)benzyl)phenyl)-N-ethyl-N-methylformimidamide] the inhibition of growth at 300 ppm [1] was > 75%, the inhibition of growth at 300 ppm [6] was > 80% and the inhibition of growth at 300 ppm [2] was > 80%. The inhibition of growth at 300 ppm [3] was > 80% and the inhibition of growth at 300 ppm [4] was > 75%.
With CCN(C)C=Nc1cc(C#N)c(Cc2ccccc2F)cc1C [Compound 247, N′-(5-cyano-4-(2-fluorobenzyl)-2-methylphenyl)-N-ethyl-N-methylformimidamide] the inhibition of growth at 300 ppm [1] was > 75%, the inhibition of growth at 300 ppm [6] was > 80% and the inhibition of growth at 300 ppm [2] was > 80%. For the same molecule, the inhibition of growth at 300 ppm [4] was > 75%.
CCN(C)C=Nc1cc(C)c(Cc2cccc(C(F)(F)F)c2)cc1F [Compound 205, N-ethyl-N′-(2-fluoro-5-methyl-4-(3-(trifluoromethyl)benzyl)phenyl)-N-methylformimidamide] was tested, and the inhibition of growth at 300 ppm [1] was > 75%, the inhibition of growth at 300 ppm [2] was > 80% and the inhibition of growth at 300 ppm [3] was > 80%. The inhibition of growth at 300 ppm [4] was > 75%.
